Reference: patent publication US9862726B2, “Opioid receptor modulating oxabicyclo[2.2.2]octane morphinans” (PURDUE PHARMA L.P., priority 2013, dated 2018)

Key:
μ-opioid receptor [1] = target: T1, μ-opioid receptor (Homo sapiens (Human), UniProt P35372); assay: μ-opioid receptor radioligand dose-displacement binding assay (HEK-293 cells)
Procedure: Radioligand dose-displacement binding assays for μ-opioid receptors used 0.3 nM [^3H]-diprenorphine (Perkin Elmer, Shelton, Conn.), with […] membrane protein/well in a final volume of 500 μl binding buffer (10 mM MgCl2, 1 mM EDTA, 5% DMSO, 50 mM HEPES, pH 7.4). Reactions were carried out in the absence or presence of increasing concentrations of unlabeled naloxone. All reactions were conducted in 96-deep well polypropylene plates for 2 hours at room temperature. Binding reactions were terminated by rapid filtration onto 96-well Unifilter GF/C filter plates (Perkin Elmer, Shelton, Conn.), presoaked in 0.5% polyethylenimine using a 96-well tissue harvester (Perkin Elmer, Shelton, Conn.) followed by performing three filtration washes with 500 μl of ice-cold binding buffer. Filter plates were subsequently dried at 50° C. for 2-3 hours. BetaScint scintillation cocktail (Perkin Elmer, Shelton, Conn.) was added (50 μl/well), and plates were counted using a Packard Top-Count for 1 min/well. The data were analyzed using the one-site competition curve fitting functions in GraphPad PRISM™ v. 3.0 or higher (San Diego, Calif.), or an in-house function for one-site competition curve-fitting.
(§1) In TABLE 3, binding affinity of certain Compounds of the Invention to the μ- and κ-opioid receptors was determined as described above using HEK-293 cells.

[2] = target: recombinant human kappa opioid receptor (κ) (Homo sapiens (Human), UniProt P41145); assay: κ-opioid receptor radioligand dose-displacement binding assay (HEK-293 cells)
Procedure: Membranes from HEK-293 cells, CHO cells or U-2 OS cells expressing the recombinant human kappa opioid receptor (κ) were prepared by lysing cells in ice cold hypotonic buffer (2.5 mM MgCl2, 50 mM HEPES, pH 7.4) (10 mL/10 cm dish) followed by homogenization with a tissue grinder/Teflon pestle. Membranes from a cell line naturally expressing kappa opioid receptor can also be used. Membranes were collected by centrifugation at 30,000×g for 15 min at 4° C. and pellets were resuspended in hypotonic buffer to a final concentration of 1-3 mg/mL. Protein concentrations were determined using the BioRad protein assay reagent with bovine serum albumen as standard. Aliquots of κ receptor membranes were stored at −80° C.
Radioligand dose displacement assays used 0.4 nM [^3H]-U69,593 (GE Healthcare, Piscataway, N.J.; 40 Ci/mmole) with 15 μg membrane protein (recombinant κ opioid receptor expressed in HEK 293 cells; in-house prep) in a final volume of 200 μl binding buffer (5% DMSO, 50 mM Trizma base, pH 7.4). Non-specific binding was determined in the presence of 10 μM unlabeled naloxone or U69,593. All reactions were performed in 96-well polypropylene plates for 1 hour at a temperature of about 25° C. Binding reactions were terminated by rapid filtration onto 96-well Unifilter GF/C filter plates (Perkin Elmer, Shelton, Conn.) presoaked in 0.5% polyethylenimine (Sigma). Harvesting was performed using a 96-well tissue harvester (Perkin Elmer, Shelton, Conn.) followed by five filtration washes with 200 μl ice-cold binding buffer. Filter plates were subsequently dried at 50° C. for 1-2 hours. Fifty μl/well scintillation cocktail (Perkin Elmer, Shelton, Conn.) was added and plates were counted in a Packard Top-Count for 1 min/well.
as §1

μ-opioid receptor [3] = target: T1, μ-opioid receptor; assay: μ-opioid receptor [35S]GTPγS functional assay (HEK-293 cells); assay type: biochemical; conditions: for Emax: HEK-293 cells, relative to DAMGO
Procedure: (§2) [^35S]GTPγS functional assays were conducted using freshly thawed μ-receptor membranes prepared in-house from a cell line expressing recombinant μ opioid receptor in a HEK-293, CHO or U-2 OS cell background, or purchased from a commercial source (Perkin Elmer, Shelton, Conn.; or DiscovRx, Fremont, Calif.). Assay reactions were prepared by sequentially adding the following reagents to binding buffer (100 mM NaCl, 10 mM MgCl2, 20 mM HEPES, pH 7.4) on ice (final concentrations indicated): membrane protein (0.026 mg/mL), saponin ([…]), GDP ([…]) and [^35S]GTPγS (0.20 nM; Perkin Elmer, Shelton, Conn.). The prepared membrane solution (190 μl/well) was transferred to 96-shallow well polypropylene plates containing 10 μl of 20× concentrated stock solutions of the agonist [D-Ala^2, N-methyl-Phe^4 Gly-ol^5]-enkephalin (DAMGO) prepared in dimethyl sulfoxide (DMSO). Plates were incubated for 30 min at about 25° C. with shaking. Reactions were terminated by rapid filtration onto 96-well Unifilter GF/B filter plates (Perkin Elmer, Shelton, Conn.) using a 96-well tissue harvester (Perkin Elmer, Shelton, Conn.) followed by three filtration washes with 200 μl of ice-cold wash buffer (10 mM NaH2PO4, 10 mM Na2HPO4, pH 7.4). Filter plates were subsequently dried at 50° C. for 2-3 hours. BetaScint scintillation cocktail (Perkin Elmer, Shelton, Conn.) was added (50 μl/well) and plates were counted using a Packard Top-Count for 1 min/well. Data were analyzed using the sigmoidal dose-response curve fitting functions in GraphPad PRISM v. 3.0, or an in-house function for non-linear, sigmoidal dose-response curve-fitting. [^35S]GTPγS functional assays can also be conducted using freshly thawed μ-receptor membranes prepared from a cell line expressing recombinant μ opioid receptor in a CHO-K1 cell background.
(§3) μ GTP EC50 is the concentration of a compound providing 50% of the maximal response for the compound at a μ-opioid receptor.
(§4) μ GTP Emax (%) is the maximal effect elicited by a compound relative to the effect elicited by DAMGO, a standard μ agonist.
(§5) In TABLE 4, activity response of certain Compounds of the Invention to the μ- and κ-opioid receptors was determined as described above for functional assays using HEK-293 cells.

κ-opioid receptor [4] = target: T2, κ-opioid receptor (Homo sapiens (Human), UniProt P41145); assay: κ-opioid receptor [35S]GTPγS functional assay (HEK-293 cells); assay type: biochemical; conditions: for Emax: HEK-293 cells, relative to U69,593
Procedure: (§6) Functional [^35S]GTPγS binding assays were conducted as follows. κ opioid receptor membrane solution was prepared by sequentially adding final concentrations of 0.026 μg/μl κ membrane protein (in-house), 10 μg/mL saponin, 3 μM GDP and 0.20 nM [^35S]GTPγS to binding buffer (100 mM NaCl, 10 mM MgCl2, 20 mM HEPES, pH 7.4) on ice. The prepared membrane solution (190 μl/well) was transferred to 96-shallow well polypropylene plates containing 10 μl of 20× concentrated stock solutions of agonist prepared in DMSO. Plates were incubated for 30 min at a temperature of about 25° C. with shaking. Reactions were terminated by rapid filtration onto 96-well Unifilter GF/B filter plates (Perkin Elmer, Shelton, Conn.) using a 96-well tissue harvester (Packard) and followed by three filtration washes with 200 μl ice-cold binding buffer (10 mM NaH2PO4, 10 mM Na2HPO4, pH 7.4). Filter plates were subsequently dried at 50° C. for 2-3 hours. Fifty μl/well scintillation cocktail (Perkin Elmer, Shelton, Conn.) was added and plates were counted in a Packard Top-Count for 1 min/well.
(§7) κ GTP EC50 is the concentration of a compound providing 50% of the maximal response for the compound at a κ receptor.
(§8) κ GTP Emax (%) is the maximal effect elicited by a compound relative to the effect elicited by U69,593.
as §5

κ-opioid receptor [5] = target: T2, κ-opioid receptor; assay: κ-opioid receptor functional assay (U-2 OS cells); assay type: biochemical; conditions: for Emax: U-2 OS cells, relative to U69,593
Procedure: as §6, §7, §8
The following TABLE 5 provides results on the activity response of certain Compounds of the Invention at the μ- and κ-opioid receptors determined as described above using U-2 OS cells.

μ-opioid receptor [6] = target: T1, μ-opioid receptor; assay: μ-opioid receptor functional assay (U-2 OS cells); assay type: biochemical; conditions: for Emax: U-2 OS cells, relative to DAMGO
Procedure: as §2, §3, §4

| SMILES | Ki (μ-opioid receptor [1]) [nM] | Ki [2] [nM] | EC50 (μ-opioid receptor [3]) [nM] | Emax (μ-opioid receptor [3]) [%] | EC50 (κ-opioid receptor [4]) [nM] | Emax (κ-opioid receptor [4]) [%] | EC50 (κ-opioid receptor [5]) [nM] | Emax (κ-opioid receptor [5]) [%] | EC50 (μ-opioid receptor [6]) [nM] | Emax (μ-opioid receptor [6]) [%] |
| --- | --- | --- | --- | --- | --- | --- | --- | --- | --- | --- |
| COc1ccc2c(c1)[C@]13CCN(CC4CC4)[C@H](C2)[C@]12CC[C@](N)(C3)C(=O)O2 [Compound 3, (4bR,6S,8aS,9R)-6-amino-11-(cyclopropylmethyl)-3-methoxy-5,6,7,8,9,10-hexahydro-9,4b-(epiminoethano)-8a,6-(epoxymethano)phenanthren-15-one] | 1330 ± 313 | 248 ± 54.6 | 2980 ± 706 | 48.3 ± 6.01 | 3010 ± 274 | 79.7 ± 10.3 | 807 ± 83.2 | 99 ± 1.73 |  |  |
| COc1ccc2c(c1)[C@]13CCN(CC4CC4)[C@H](C2)[C@]12CC[C@](O)(C3)C(=O)O2 [Compound 4, (4bR,6S,8aS,9R)-11-(cyclopropylmethyl)-6-hydroxy-3-methoxy-5,6,7,8,9,10-hexahydro-9,4b-(epiminoethano)-8a,6-(epoxymethano)phenanthren-15-one] | 6350 ± 1020 | 251 ± 62.9 | > 20000 | 1 | 2850 ± 1190 | 92 ± 6.03 | 1110 ± 159 | 105 ± 7.02 |  |  |
| O=C1O[C@@]23CC[C@]1(O)C[C@@]21CCN(CC2CC2)[C@@H]3Cc2ccc(O)cc21 [Compound 9, (4bR,6S,8aS,9R)-11-(cyclopropylmethyl)-3,6-dihydroxy-5,6,7,8,9,10-hexahydro-9,4b-(epiminoethano)-8a,6-(epoxymethano)phenanthren-15-one] | 10.1 ± 2.46 | 0.95 ± 0.29 | > 20000 | 0.5 ± 0.5 | 54.7 ± 7.26 | 54 ± 3.89 | 5.23 ± 0.38 | 91.7 ± 4.84 | 9.17 ± 1.18 | 63.7 ± 5.21 |
| N[C@]12CC[C@@]3(OC1)[C@H]1Cc4ccc(O)cc4[C@@]3(CCN1CC1CC1)C2 [Compound 17, (4bR,6S,8aS,9R)-6-amino-11-(cyclopropylmethyl)-5,6,7,8,9,10-hexahydro-9,4b-(epiminoethano)-8a,6-(epoxymethano)phenanthren-3-ol] | 0.79 ± 0.19 | 0.096 ± 0.026 | > 20000 | 0 | 0.48 ± 0.02 | 75 ± 5.03 | 0.3 ± 0.032 | 106 ± 6.84 | 0.65 ± 0.078 | 77 ± 1 |
| COc1ccc2c(c1)[C@]13CCN(CC4CC4)[C@H](C2)[C@]12CC[C@@](NC(=O)C(C)(C)C)(CO2)C3 [Compound 21, N-((4bR,6S,8aS,9R)-11-(cyclopropylmethyl)-3-methoxy-5,6,7,8,9,10-hexahydro-9,4b-(epiminoethano)-8a,6-(epoxymethano)phenanthren-6-yl)pivalamide] | 265 ± 77.5 | 0.33 ± 0.023 | 359 ± 128 | 35 ± 4.04 | 3.25 ± 0.37 | 97.3 ± 1.33 | 1.12 ± 0.056 | 111 ± 3.28 | 86.8 ± 2.57 | 92.7 ± 2.91 |
| CC(C)(C)C(=O)N[C@]12CC[C@@]3(OC1)[C@H]1Cc4ccc(O)cc4[C@@]3(CCN1CC1CC1)C2 [Compound 26, N-((4bR,6S,8aS,9R)-11-(cyclopropylmethyl)-3-hydroxy-5,6,7,8,9,10-hexahydro-9,4b-(epiminoethano)-8a,6-(epoxymethano)phenanthren-6-yl)pivalamide] | 0.056 ± 0.01 | 0.059 ± 0.01 | > 20000 | 4 ± 1.53 |  |  | 0.031 | 91.7 ± 2.73 | 0.28 ± 0.01 | 89 ± 3.06 |
| O=C(N[C@]12CC[C@@]3(OC1)[C@H]1Cc4ccc(O)cc4[C@@]3(CCN1CC1CC1)C2)c1ccccc1 [Compound 27, N-((4bR,6S,8aS,9R)-11-(cyclopropylmethyl)-3-hydroxy-5,6,7,8,9,10-hexahydro-9,4b-(epiminoethano)-8a,6-(epoxymethano)phenanthren-6-yl)benzamide] | 0.019 ± 0.01 | 0.062 ± 0.012 | 0.58 ± 0.18 | 34.7 ± 1.45 | 0.14 | 94.2 ± 2.12 | 0.028 | 93.3 ± 3.84 | 0.037 ± 0.01 | 112 ± 3.51 |
